Laboratory results from patent US7884117B2, “Carbonylamino pyrrolopyrazoles, potent kinase inhibitors” (Pfizer Inc., priority 2005, dated 2011).

Biological target: T1, PAK4 Kinase domain (PAK4 KD) (Homo sapiens, UniProt O96013)
T1 construct: Cloning, expression, and purification of recombinant PAK4 Kinase domain (PAK4 KD); His tag (pET28a(+)/pET24a(+), Ni-NTA purification) (N, cleaved yes); GST (pGST4.5, glutathione column) (N, cleaved yes); made in house; host or cells: E. coli BL21(DE3)
Test: PAK4 kinase domain enzymatic assay (PK/LDH-coupled, Ki)
Format: biochemical
Conditions: for Ki: PAK4 Kinase Domain

T1 sequence (O96013 321-572 limits assumed): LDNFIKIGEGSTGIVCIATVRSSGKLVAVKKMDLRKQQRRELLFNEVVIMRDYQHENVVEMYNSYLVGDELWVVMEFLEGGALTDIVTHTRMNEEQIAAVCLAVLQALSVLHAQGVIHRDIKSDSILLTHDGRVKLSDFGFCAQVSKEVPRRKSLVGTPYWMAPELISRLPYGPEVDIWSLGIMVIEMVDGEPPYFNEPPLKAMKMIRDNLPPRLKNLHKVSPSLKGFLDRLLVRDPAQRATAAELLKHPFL

| Ki [nM] | inhibition at 1 µM [%] | Compound |
| --- | --- | --- |
| 96 |  | CC1(C)c2[nH]nc(NC(=O)c3ccccc3)c2CN1C(=O)N[C@@H]1C[C@H]1c1ccccc1 (relative stereo) [Example 58, 3-(benzoylamino)-6,6-dimethyl-N-[trans-2-phenylcyclopropyl]-4,6-dihydropyrrolo[3,4-c]pyrazole-5(1H)-carboxamide] |
| 223 |  | CC1(C)c2[nH]nc(NC(=O)Cc3ccc(F)cc3)c2CN1C(=O)N[C@@H]1C[C@H]1c1ccccc1 (relative stereo) [Example 70, 3-{[(4-fluorophenyl)acetyl]amino}-6,6-dimethyl-N-[trans-2-phenylcyclopropyl]-4,6-dihydropyrrolo[3,4-c]pyrazole-5(1H)-carboxamide] |
| 113 |  | COc1ccc(CC(=O)Nc2n[nH]c3c2CN(C(=O)N[C@@H]2C[C@H]2c2ccccc2)C3(C)C)cc1 (relative stereo) [Example 101, 3-{[(4-methoxyphenyl)acetyl]amino}-6,6-dimethyl-N-[trans-2-phenylcyclopropyl]-4,6-dihydropyrrolo[3,4-c]pyrazole-5(1H)-carboxamide] |
| 260 |  | CCC(C(=O)Nc1n[nH]c2c1CN(C(=O)N[C@@H]1C[C@H]1c1ccccc1)C2(C)C)c1ccccc1 (relative stereo) [Example 107, 6,6-dimethyl-3-[(2-phenylbutanoyl)amino]-N-[trans-2-phenylcyclopropyl]-4,6-dihydropyrrolo[3,4-c]pyrazole-5(1H)-carboxamide] |
| 176 |  | COc1ccc(C(=O)Nc2n[nH]c3c2CN(C(=O)N[C@@H]2C[C@H]2c2ccccc2)C3(C)C)cc1OC (relative stereo) [Example 109, 3-[(3,4-dimethoxybenzoyl)amino]-6,6-dimethyl-N-[trans-2-phenyl-cyclopropyl]-4,6-dihydropyrrolo[3,4-c]pyrazole-5(1H)-carboxamide] |
| 356 |  | COCC(=O)Nc1n[nH]c2c1CN(C(=O)O[C@H](CN(C)C)c1ccccc1)C2(C)C [Example 14, (1S)-2-(dimethylamino)-1-phenylethyl 3-[(methoxyacetyl)amino]-6,6-dimethyl-4,6-dihydropyrrolo[3,4-c]pyrazole-5(1H)-carboxylate] |
| 220 |  | CN(C)C[C@@H](OC(=O)N1Cc2c(NC(=O)c3ccccc3F)n[nH]c2C1(C)C)C1CCCCC1 [Example 33, (1S)-1-cyclohexyl-2-(dimethylamino)ethyl 3-[(2-fluorobenzoyl)amino]-6,6-dimethyl-4,6-dihydropyrrolo[3,4-c]pyrazole-5(1H)-carboxylate] |
| 564 |  | C[C@@H](CN(C)C)OC(=O)N1Cc2c(NC(=O)c3ccc(F)cc3F)n[nH]c2C1(C)C [Example 37, (1S)-2-(dimethylamino)-1-methylethyl 3-[(2,4-difluorobenzoyl)amino]-6,6-dimethyl-4,6-dihydropyrrolo[3,4-c]pyrazole-5(1H)-carboxylate] |
| 786 |  | CN(C)[C@@H](COC(=O)N1Cc2c(NC(=O)c3ccc(F)cc3)n[nH]c2C1(C)C)c1ccccc1 [Example 41, (R)-2-(dimethylamino)-2-phenylethyl 3-[(4-fluorobenzoyl)amino]-6,6-dimethyl-4,6-dihydropyrrolo[3,4-c]pyrazole-5(1H)-carboxylate] |
| 955 |  | CN(C)[C@H](COC(=O)N1Cc2c(NC(=O)c3ccc(F)cc3)n[nH]c2C1(C)C)c1ccccc1 [Example 42, (S)-2-(dimethylamino)-2-phenylethyl 3-[(4-fluorobenzoyl)amino]-6,6-dimethyl-4,6-dihydropyrrolo[3,4-c]pyrazole-5(1H)-carboxylate] |
| 448 |  | CC1(C)c2[nH]nc(NC(=O)c3ccccc3)c2CN1C(=O)NC1CCN(Cc2ccccc2)C1 (stereo not drawn) [Example 59, 3-(benzoylamino)-N-(1-benzylpyrrolidin-3-yl)-6,6-dimethyl-4,6-dihydropyrrolo[3,4-c]pyrazole-5(1H)-carboxamide] |
| 267 |  | CC1(C)c2[nH]nc(NC(=O)c3ccccc3)c2CN1C(=O)NC(CN1CCCC1)c1ccccc1 (stereo not drawn) [Example 60, 3-(benzoylamino)-6,6-dimethyl-N-(1-phenyl-2-pyrrolidin-1-ylethyl)-4,6-dihydropyrrolo[3,4-c]pyrazole-5(1H)-carboxamide] |
| 444 |  | CC1(C)c2[nH]nc(NC(=O)c3ccccc3)c2CN1C(=O)NC1CCCN(Cc2ccccc2)C1 (stereo not drawn) [Example 61, 3-(benzoylamino)-N-(1-benzylpiperidin-3-yl)-6,6-dimethyl-4,6-dihydropyrrolo[3,4-c]pyrazole-5(1H)-carboxamide] |
| 308 |  | CCC(NC(=O)N1Cc2c(NC(=O)c3ccccc3)n[nH]c2C1(C)C)c1ccccc1 (stereo not drawn) [Example 62, 3-(benzoylamino)-6,6-dimethyl-N-(1-phenylpropyl)-4,6-dihydropyrrolo[3,4-c]pyrazole-5(1H)-carboxamide] |
| 178 |  | CC[C@@H](NC(=O)N1Cc2c(NC(=O)c3ccccc3)n[nH]c2C1(C)C)c1ccccc1 [Example 63, 3-(benzoylamino)-6,6-dimethyl-N-[(1R)-1-phenylpropyl]-4,6-dihydropyrrolo[3,4-c]pyrazole-5(1H)-carboxamide] |
| 19.3 |  | CC1(C)c2[nH]nc(NC(=O)c3ccccc3)c2CN1C(=O)N[C@H](CN)c1ccccc1 [Example 64, N-[(1S)-2-amino-1-phenylethyl]-3-(benzoylamino)-6,6-dimethyl-4,6-dihydropyrrolo[3,4-c]pyrazole-5(1H)-carboxamide] |
| 849 |  | CC1(C)c2[nH]nc(NC(=O)C3CCC3)c2CN1C(=O)N[C@@H]1CCN(Cc2ccccc2)C1 [Example 65, N-[(3R)-1-benzylpyrrolidin-3-yl]-3-[(cyclobutylcarbonyl)amino]-6,6-dimethyl-4,6-dihydropyrrolo[3,4-c]pyrazole-5(1H)-carboxamide] |
| 556 |  | CN(C)CC(CC(=O)N1Cc2c(NC(=O)c3ccc(F)cc3)n[nH]c2C1(C)C)c1ccccc1 (stereo not drawn) [Example 66, N-{5-[4-(dimethylamino)-3-phenylbutanoyl]-6,6-dimethyl-1,4,5,6-tetrahydropyrrolo[3,4-c]pyrazol-3-yl}-4-fluorobenzamide] |
| 193 |  | CN(C)CC(CC(=O)N1Cc2c(NC(=O)c3ccccc3)n[nH]c2C1(C)C)c1ccc(Cl)cc1 (stereo not drawn) [Example 67, N-{5-[3-(4-chlorophenyl)-4-(dimethylamino)butanoyl]-6,6-dimethyl-1,4,5,6-tetrahydropyrrolo[3,4-c]pyrazol-3-yl}benzamide] |
| 475 |  | CC(C)[C@@H](CN(C)C)OC(=O)N1Cc2c(NC(=O)c3ccccc3)n[nH]c2C1(C)C [Example 74, (1S)-1-[(dimethylamino)methyl]-2-methylpropyl 3-(benzoylamino)-6,6-dimethyl-4,6-dihydropyrrolo[3,4-c]pyrazole-5(1H)-carboxylate] |
| 468 |  | CN(C)C[C@H](Cc1ccccc1)OC(=O)N1Cc2c(NC(=O)c3ccc(F)cc3)n[nH]c2C1(C)C [Example 76, (1S)-1-benzyl-2-(dimethylamino)ethyl 3-[(4-fluorobenzoyl)amino]-6,6-dimethyl-4,6-dihydropyrrolo[3,4-c]pyrazole-5(1H)-carboxylate] |
| 284 |  | CC(C)C[C@@H](CN(C)C)OC(=O)N1Cc2c(NC(=O)c3ccccc3F)n[nH]c2C1(C)C [Example 78, (1S)-1-[(dimethylamino)methyl]-3-methylbutyl 3-[(2-fluorobenzoyl)amino]-6,6-dimethyl-4,6-dihydropyrrolo[3,4-c]pyrazole-5(1H)-carboxylate] |
| 286 |  | CN(C)C[C@@H](OC(=O)N1Cc2c(NC(=O)C3CCOCC3)n[nH]c2C1(C)C)c1ccccc1 [Example 91, (S)-2-(dimethylamino)-1-phenylethyl 6,6-dimethyl-3-(tetrahydro-2H-pyran-4-carboxamido)pyrrolo[3,4-c]pyrazole-5(1H,4H,6H)-carboxylate] |
| 621 |  | CC1(C)c2[nH]nc(NC(=O)c3ccc(F)cc3)c2CN1C(=O)NC(CN1CCOCC1)c1ccccc1 (stereo not drawn) [Example 102, 3-[(4-fluorobenzoyl)amino]-6,6-dimethyl-N-(2-morpholin-4-yl-1-phenylethyl)-4,6-dihydropyrrolo[3,4-c]pyrazole-5(1H)-carboxamide] |
| 512 |  | CN(C)C[C@H](c1ccccc1)N(C)C(=O)N1Cc2c(NC(=O)c3ccccc3)n[nH]c2C1(C)C [Example 103, 3-(benzoylamino)-N-[(1S)-2-(dimethylamino)-1-phenylethyl]-N,6,6-trimethyl-4,6-dihydropyrrolo[3,4-c]pyrazole-5(1H)-carboxamide] |
| 121 |  | CCc1cc(C(=O)Nc2n[nH]c3c2CN(C(=O)N[C@H](CN(C)C)c2ccccc2)C3(C)C)no1 [Example 105, (S)-N-(2-(dimethylamino)-1-phenyl)-3-(5-ethylisoxazole-3-carboxamido)-6,6-dimethylpyrrolo [3,4-c]pyrazole-5(1H,4H,6H)-carboxamide] |
| 412 |  | COc1cc(C(=O)Nc2n[nH]c3c2CN(C(=O)N[C@H](CN(C)C)c2ccccc2)C3(C)C)nc(OC)n1 [Example 106, (S)-3-(2,4-dimethoxypyrimidine-6-carboxamido)-N-(2-(dimethylamino)-1-phenylethyl)-6,6-dimethylpyrrolo[3,4-c]pyrazole-5(1H,4H,6H)-carboxamide] |
| 81.7 |  | Cc1ccc(Cl)c(C(=O)Nc2n[nH]c3c2CN(C(=O)N[C@H](CN(C)C)c2ccccc2)C3(C)C)c1F [Example 110, (S)-3-(6-chloro-2-fluoro-3-methylbenzamido)-N-(2-(dimethylamino)-1-phenylethyl)-6,6-dimethylpyrrolo[3,4-c]pyrazole-5(1H,4H,6H)-carboxamide] |
|  | 42 | CN(C)C[C@@H](NC(=O)N1Cc2c(NC(=O)c3cnccn3)n[nH]c2C1(C)C)c1ccccc1 [Example 111, (S)-N-(2-(dimethylamino)-1-phenylethyl)-6,6-dimethyl-3-(pyrazine-2-carboxamido)pyrrolo[3,4-c]pyrazole-5 (1H,4H,6H)-carboxamide] |
|  | 66 | CN(C)C[C@@H](NC(=O)N1Cc2c(NC(=O)C3COc4ccccc4O3)n[nH]c2C1(C)C)c1ccccc1 (stereo partly drawn) [Example 112, 3-(2,3-dihydrobenzo[b][1,4]dioxine-2-carboxamido)-N-((S)-2-(dimethylamino)-1-phenylethyl)-6,6-dimethylpyrrolo[3,4-c]pyrazole-5(1H,4H,6H)-carboxamide] |
